Patent US20220175777A1, “Inhibitors of Multidrug Resistance Transporter P-Glycoprotein” (Southern Methodist University, priority 2014, published 2022)

Key:
DU145TXR [1] = assay: Potentiation of 500 nM paclitaxel cytotoxicity (MTT); format: cell-based, human
Description: FIGS. 4A and 4B show the in silico identified P-gp inhibitors potentiate the cytotoxic effects of paclitaxel in the MDR human prostate cancer cell line DU145TxR. […] Values represent the mean±SEM of at least two separate experiments performed in triplicate.
A range of experimental inhibitor concentrations was added in the presence of 500 nM paclitaxel and the cell viability was assessed using the MTT assay.
In order to compare the efficacy of inhibitors, the potentiation concentration of inhibitor resulting in 50% reduction in cell viability, PC50, in the presence of 500 nM paclitaxel was calculated from the data in FIG. 4A.

DU145 = assay: Intrinsic toxicity, MTT survival; format: cell-based; conditions: Homo sapiens, DU-145, 48 hours, ± standard error
Description: (§1) Percent survival determined by MTT assay calculated relative to cells treated with equal volume DMSO vehicle and represent the mean±SEM from 2-4 separate studies, each study performed in triplicate wells.
(§2) The intrinsic in vitro toxicities of identified compounds were evaluated to determine their potential therapeutic window. This was assessed in a noncancerous cell line (HFL1) and the human prostate cancer cell lines DU145 and the MDR sub-line DU145TxR.

[2] = molecular target: T1, Cysteineless Mouse MDR3 P-glycoprotein (Mus musculus, UniProt P21447, C1070A/C1121A/C1223A/C133A/C427A/C638A/C669A/C713A/C952A); assay: SL-ATP binding to P-gp by ESR spectroscopy; conditions: 50 microM inhibitor compound
T1 construct: made in house; host or cells: Pichia pastoris
T1 sequence (P21447 whole entry C133A/C427A/C638A/C669A/C713A/C952A/C1070A/C1121A/C1223A): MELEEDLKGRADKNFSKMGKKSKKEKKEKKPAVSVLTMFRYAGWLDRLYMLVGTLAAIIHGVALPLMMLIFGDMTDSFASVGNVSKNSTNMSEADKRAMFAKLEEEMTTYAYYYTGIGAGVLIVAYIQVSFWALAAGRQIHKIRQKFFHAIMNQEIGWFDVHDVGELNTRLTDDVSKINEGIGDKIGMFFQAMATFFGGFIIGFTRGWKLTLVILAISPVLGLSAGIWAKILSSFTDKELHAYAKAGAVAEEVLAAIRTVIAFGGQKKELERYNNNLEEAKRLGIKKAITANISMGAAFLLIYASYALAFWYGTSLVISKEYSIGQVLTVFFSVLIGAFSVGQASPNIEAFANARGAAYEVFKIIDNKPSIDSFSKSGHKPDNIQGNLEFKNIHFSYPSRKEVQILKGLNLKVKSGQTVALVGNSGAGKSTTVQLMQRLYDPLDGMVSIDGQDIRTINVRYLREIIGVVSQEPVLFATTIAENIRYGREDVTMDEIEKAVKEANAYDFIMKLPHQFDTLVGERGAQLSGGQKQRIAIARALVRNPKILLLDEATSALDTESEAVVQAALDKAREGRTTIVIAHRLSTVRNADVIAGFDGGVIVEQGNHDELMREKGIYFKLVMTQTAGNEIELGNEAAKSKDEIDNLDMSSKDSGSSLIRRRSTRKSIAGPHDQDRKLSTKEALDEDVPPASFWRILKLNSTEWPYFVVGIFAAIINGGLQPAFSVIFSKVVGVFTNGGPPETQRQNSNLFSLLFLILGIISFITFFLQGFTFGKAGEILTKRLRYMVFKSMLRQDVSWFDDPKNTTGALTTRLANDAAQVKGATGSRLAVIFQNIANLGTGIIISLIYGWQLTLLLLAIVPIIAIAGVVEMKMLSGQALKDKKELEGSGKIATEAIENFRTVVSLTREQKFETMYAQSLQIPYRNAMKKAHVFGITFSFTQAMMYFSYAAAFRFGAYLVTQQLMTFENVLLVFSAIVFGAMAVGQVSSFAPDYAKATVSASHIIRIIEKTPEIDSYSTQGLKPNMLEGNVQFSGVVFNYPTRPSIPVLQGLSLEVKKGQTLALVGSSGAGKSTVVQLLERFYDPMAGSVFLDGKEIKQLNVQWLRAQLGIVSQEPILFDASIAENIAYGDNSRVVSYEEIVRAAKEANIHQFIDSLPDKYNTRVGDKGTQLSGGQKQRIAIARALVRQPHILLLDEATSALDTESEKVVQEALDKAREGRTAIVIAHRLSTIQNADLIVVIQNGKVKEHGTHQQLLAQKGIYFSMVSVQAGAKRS
Outline: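 Cysteine-free mouse P-gp (30–50 microM) incubated with 50 microM inhibitor, then titrated with spin-labelled ATP analogue SL-ATP. Bound SL-ATP calculated from high-field ESR signal of free SL-ATP versus no-protein control, giving binding stoichiometry and affinity; at least 3 studies on 3–5 P-gp preparations.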

DU145TXR [3] = assay: Dose dependent sensitization of MDR cell line to paclitaxel (MTT); format: cell-based, human; conditions: 25 μM compound
Description: FIGS. 6A to 6C show the dose dependent sensitization of MDR prostate cancer cell line DU145TxR. […] For reference, the DU145TxR (closed circle) and DU145 (open circle) incubated with paclitaxel only are also included. Values are mean±SEM from at least 2 separate experiments performed in triplicate wells. The data were normalized to the intrinsic toxicities as determined in studies from FIGS. 5A to 5C of each of the compounds for each of the corresponding concentrations.
Dose Dependent Sensitization of MDR Prostate Cancer Cell Line: To determine the degree to which the MDR prostate cancer cell line DU145TxR could be sensitized to paclitaxel the inventors determined cell survival at increasing concentrations of paclitaxel in the presence of three concentrations of P-gp inhibitors. FIGS. 6A, 6B and 6C show the survival of DU145TxR at increasing concentration of paclitaxel in the presence of 5 μM, 10 μM and 25 μM of the experimental compounds, respectively. The open circles represent the parental DU145 cell line in the presence of paclitaxel without addition of any inhibitor compound. The closed circles represent the survival of the multidrug resistant DU145TxR in the presence of paclitaxel alone. […] At that concentration over 10-fold increase in paclitaxel sensitivity in DU145TxR is observed compared to DU145TxR without P-gp inhibitors. Doubling the concentration of the compounds to 10 μM approximately doubled the DU145TxR sensitivity to paclitaxel.

HFL1 = assay: Intrinsic toxicity, MTT survival; format: cell-based; conditions: Homo sapiens, 48 hours, ± standard error
Description: as §1
as §2, with “DU145TxR. The potential toxicity of the compounds were assessed at concentrations that centered around 25 μM.” for “DU145TxR.”

DU145-TxR = assay: Re-sensitization to Paclitaxel or Doxorubicin at 25 μM compound (MTT); format: cell-based, human; conditions: 48 hours
Description: FIGS. 3A-3B are plots that show an example of the re-sensitization of a multidrug resistant prostate cancer cell line to two different chemotherapeutics using the prostate cancer derived cell line, DU145 and the multidrug-resistant variant, DU145-TxR. […] Cell viability was measured by the MTT (3-(4,5-dimethylthiazol-2-yl)-2,5-diphenyl tetrazolium bromide assay conducted as described previously. After 48 hours of treatment with Paclitaxel or Doxorubicin alone or in the presence of 25 μM compound 29, 34, or 45 media was removed and cells were washed twice with phosphate buffered saline (PBS) and MTT assay was conducted 24 hours later. Data expressed as mean±SEM.

**Q.** `Cc1cc(C)c(-c2cc(NC(=O)CSc3n[nH]c(C4CC4)n3)n(-c3ccccc3)n2)cc1C` [SMU-29, 2-[(5-cyclopropyl-1H-1,2,4-triazol-3-yl)sulfanyl]-N-[2-phenyl-5-(2,4,5-trimethylphenyl)pyrazol-3-yl]acetamide] was tested. Which “Effect on paclitaxel sensitivity” value (DU145TXR [1]; 50 nM-25 μM inhibitor with 500 nM paclitaxel) did it give?
**A.** The value was “strongly affected the sensitivity”.

**Q.** And the EC50 (DU145TXR [1]; in the presence of 500 nM paclitaxel, 48 hours, read-out: PC50, potentiation concentration of inhibitor resulting in 50% reduction in cell viability)?
**A.** Its EC50 is 2.33 ± 0.01 µM.

**Q.** And the IC50 (DU145)?
**A.** Its IC50 is 33.4 ± 0.01 µM.

**Q.** And the “Effect on SL-ATP binding” value [2]?
**A.** Its value is “decreased the SL-ATP binding affinities”.

**Q.** What about the Sensitization to paclitaxel (DU145TXR [3]) of the same molecule?
**A.** Its Sensitization to paclitaxel is 800 fold.

**Q.** And the IC50 (HFL1)?
**A.** The IC50 was 48.2 ± 0.01 µM.

**Q.** What about the “Chemotherapeutic sensitivity of MDR cell line (Paclitaxel or Doxorubicin)” value (DU145-TxR) of the same molecule?
**A.** The value was “restores chemotherapeutic sensitivity”.
